Data reported in paper PMC4977651, “Molecular features of biguanides required for targeting of mitochondrial respiratory complex I and activation of AMP-kinase” (BMC Biology, 2016).
Several values for one entry are separate records, joined by “and”; a condition that tells them apart may be missing. Identical values can stand only once.

Tests used:
[1] = tested on: bovine mitochondrial membranes (complexes II-III-IV); test: Succinate:O2 oxidoreduction (complexes II-III-IV, complex II assay) by bovine mitochondrial membranes; type: biochemical, Bos taurus; settings: biguanide concentrations set to the IC50 values for NADH:O2 on bovine membranes; control = 100.00; n = 3
Experimental: Assays were performed at 32 °C in a SpectraMax 96-well plate reader. NADH:decylubiquinone oxidoreduction by complex I at 0.5 μg mL^−1 was measured in 20 mM Tris-HCl (pH 7.2), 0.15 % soy bean asolectin (Avanti Polar Lipids), and 0.15 % 3-((3-cholamidopropyl)dimethylammonium)-1-propanesulfonate (CHAPS, Merck Chemicals Ltd), with 200 μM decylubiquinone and 200 μM NADH, and monitored using ε340–380(NADH) = 4.81 mM^−1 cm^−1 [23]. Catalysis was initiated by addition of NADH and maximal rates determined by linear regression. NADH:O2 oxidoreduction by membranes was measured similarly but using 5 μg mL^−1 membranes in 10 mM Tris-HCl (pH 7.4) and 250 mM sucrose using 200 μM NADH and supplemented with 0.15 mM horse heart cytochrome c (Sigma-Aldrich Ltd.). Succinate:O2 oxidoreduction was measured using 40 μg mL^−1 membranes in 5 mM succinate in 10 mM Tris-HCl (pH 7.4) as described previously. Control experiments included NaCl (to match the ionic strength) or DMSO, as appropriate.

permeabilized 143B cells = test: ADP-stimulated rotenone-sensitive OCR in permeabilized 143B cells; type: cell-based, human; parameters: rotenone sensitive OCR after ADP stimulation, individual replicates / rotenone sensitive OCR after ADP stimulation, average: unit not given here; settings: for rotenone sensitive OCR after ADP stimulation, % of control, average / rotenone sensitive OCR after ADP stimulation, average / rotenone sensitive OCR after ADP stimulation, % of control, individual replicates / rotenone sensitive OCR after ADP stimulation, individual replicates: 143B permeabilised cells; for rotenone sensitive OCR after ADP stimulation, % of control, average / rotenone sensitive OCR after ADP stimulation, average: average of replicates; for rotenone sensitive OCR after ADP stimulation, % of control, individual replicates / rotenone sensitive OCR after ADP stimulation, individual replicates: replicate 1-11
Experimental: For permeabilized cell experiments, cells were seeded into XF96 plates at 0.9–1.1 × 10^4 per well and incubated for 48 h at 37 °C in 5 % CO2. Then, the growth medium was exchanged for assay buffer containing 3 nM plasma membrane permeabilizer ‘PMP’ (Seahorse Biosciences Inc.), 10 mM glutamate, 10 mM malate, 220 mM mannitol, 70 mM sucrose, 10 mM KH2PO4, 5 mM MgCl2, 1 mM EGTA, 0.2 % fatty acid-free bovine serum albumin (BSA), and 2 mM HEPES (pH 7.4 at 37 °C). […] The biguanides were allowed to accumulate for 30 min, then respiration was […] by the addition of 4 mM ADP. Rotenone was added (2 μM) at the end of the experiment.
Rotenone-sensitive OCRs were calculated by subtracting the rotenone-insensitive rates (determined at the end of the experiment). OCRs were normalized by dividing by the OCR recorded immediately prior to the addition of biguanide. For rate of uptake calculations, the OCRs at time points after biguanide addition were divided by the OCRs at the same time points in control experiments. Data from wells with failed port injections were excluded from the analyses. The respiratory control ratio (RCR) values (state III versus state IV respiration) were ~11 and ~6 for permeabilized MDBK and 143B cells, respectively.

mouse heart mitochondria = test: ADP-stimulated rotenone-sensitive OCR in isolated mouse heart mitochondria; type: biochemical; parameters: rotenone sensitive OCR after ADP stimulation, individual replicates / rotenone sensitive OCR after ADP stimulation, average / rotenone sensitive OCR after 15 mins, average: unit not given here; settings: for rotenone sensitive OCR after ADP stimulation, % of control, average / rotenone sensitive OCR after ADP stimulation, average: average of replicates; for rotenone sensitive OCR after ADP stimulation, % of control, individual replicates: replicate 1-11; for rotenone sensitive OCR after ADP stimulation, individual replicates: replicate 1-12
Experimental: Complex I and mitochondrial membranes were prepared from Bos taurus (bovine) heart. Intact mitochondria were isolated from rat liver and mouse heart and liver. Membranes were prepared from mouse heart mitochondria by 5 s bursts of sonication at 4 °C and collected by centrifugation (75,000 × g, 1 h).
Isolated mitochondria were monitored using a Seahorse XF96 extracellular flux analyzer at 32 °C. Mouse heart mitochondria, and mouse and rat liver mitochondria were plated into XF96 plates at 4 and 16–20 μg per well, respectively, in 220 mM mannitol, 70 mM sucrose, 10 mM KH2PO4, 5 mM MgCl2, 1 mM EGTA, 0.2 % fatty acid-free BSA, and 2 mM HEPES (pH 7.4 at 37 °C) with 10 mM glutamate and 10 mM malate and adhered by centrifugation (2000 × g, 20 min, 4 °C). The medium was supplemented with a further 5 mM glutamate and 5 mM malate and the mitochondria incubated for 15 min. Then two baseline readings were taken before the biguanides were added at IC50/5. […] Rotenone (2 μM) was added at the end of the experiment. Data from wells with failed port injections were excluded from the analyses. The RCR values (state III versus state IV respiration) were 3.4, 4.8, and 4.6 for mouse heart, rat liver, and mouse liver, respectively.

AMPK-α (phospho-Thr172) = test: AMPK activation, western blot of phospho-AMPK-α in MDBK cells; type: cell-based, Bos taurus; settings: for p-alpha, average normalised to control: Averages of experiments 1-3, 18 hours; for p-alpha: band intensity
Experimental: (§1) MDBK cells were seeded at 1 × 10^6 cells per 6 cm dish in DMEM containing 10 % FBS. […] After 18 h cells were harvested by a rapid lysis procedure: cells were rinsed with PBS, then lysed using ice-cold buffer containing 50 mM HEPES, 1 mM EDTA, 10 % glycerol, 50 mM NaF, 5 mM sodium pyrophosphate, 1 % Triton-X100, 1 mM dithiothreitol (DTT), and a protease inhibitor cocktail (Roche). The cell lysate was centrifuged at 14,000 × g for 20 min at 4 °C and the protein concentration of the supernatant determined by bicinchoninic acid assay. The lysate was analyzed using Novex 3–12 % bis-Tris gels run in 3-(N-morpholino)propanesulfonic acid (MOPS) buffer (20 μg of protein per lane) followed by transfer to low fluorescence polyvinylidene fluoride membranes by wet transfer. Primary rabbit antibodies for AMPK-β (57C12), AMPK-α (phospho-Thr172) (40H9), and acetyl-coA carboxylase (phospho-Ser79) (Cell Signaling Technology) were incubated overnight with the membrane (1:1000 dilution) in Odyssey blocking buffer at 4 °C. A fluorescent secondary antibody was used (IRDYE800CW from LI-COR Biosciences, 1:20,000 dilution) with a LI-COR Odyssey imaging system.

[2] = tested on: acetyl-coA carboxylase (phospho-Ser79); test: AMPK activation, western blot of phospho-acetyl-coA carboxylase in MDBK cells; type: cell-based, Bos taurus; settings: for ACC, average normalised to control: Averages of experiments 1-3, 18 hours; for p-ACC: band intensity
Experimental: as §1

| SMILES | Complex II assay (succinate:O2 oxidoreduction), average [1] | rotenone sensitive OCR after ADP stimulation, % of control, individual replicates (permeabilized 143B cells) | rotenone sensitive OCR after ADP stimulation, individual replicates (permeabilized 143B cells) | rotenone sensitive OCR after ADP stimulation, % of control, average (mouse heart mitochondria) | rotenone sensitive OCR after ADP stimulation, average (mouse heart mitochondria) | rotenone sensitive OCR after ADP stimulation, % of control, individual replicates (mouse heart mitochondria) | rotenone sensitive OCR after ADP stimulation, individual replicates (mouse heart mitochondria) | p-alpha, average normalised to control (AMPK-α (phospho-Thr172)) | p-alpha / AMPK beta (AMPK-α (phospho-Thr172); Experiment 1, 18 hours) | p-alpha / AMPK beta normalised to control (AMPK-α (phospho-Thr172); Experiment 1, 18 hours) | p-alpha (AMPK-α (phospho-Thr172); Experiment 1, 18 hours) | p-alpha / AMPK beta (AMPK-α (phospho-Thr172); Experiment 2, 18 hours) | p-alpha / AMPK beta normalised to control (AMPK-α (phospho-Thr172); Experiment 2, 18 hours) | p-alpha (AMPK-α (phospho-Thr172); Experiment 2, 18 hours) | p-alpha / AMPK beta (AMPK-α (phospho-Thr172); Experiment 3, 18 hours) | p-alpha / AMPK beta normalised to control (AMPK-α (phospho-Thr172); Experiment 3, 18 hours) | p-alpha (AMPK-α (phospho-Thr172); Experiment 3, 18 hours) | ACC, average normalised to control [2] | p-ACC / AMPK beta ([2]; Experiment 1, 18 hours) | p-ACC / AMPK beta normalised to control ([2]; Experiment 1, 18 hours) | further results |
| --- | --- | --- | --- | --- | --- | --- | --- | --- | --- | --- | --- | --- | --- | --- | --- | --- | --- | --- | --- | --- | --- |
| NC(N)=NC(N)=NCCc1ccc(Cl)cc1 [compound 1, 2-[2-(4-chlorophenyl)ethyl]-1-(diaminomethylidene)guanidine] | 92.41 | 28.33 % of control and 12.14 % of control and 11.88 % of control and 16.92 % of control and 4.82 % of control and 10.72 % of control and 0.16 % of control and 5.78 % of control and 8.84 % of control and 6.27 % of control | 67.63 and 28.97 and 28.36 and 40.38 and 11.50 and 25.59 and 0.37 and 13.80 and 21.11 and 14.98 | 42.96 % of control | 104.05 | 59.58 % of control and 56.94 % of control and 47.63 % of control and 43.78 % of control and 42.25 % of control and 48.37 % of control and 28.35 % of control and 16.80 % of control | 144.30 and 137.90 and 115.35 and 106.02 and 102.33 and 117.15 and 68.67 and 40.69 | 5.54 | 0.63 | 5.05 | 288 | 1.08 | 7.41 | 388 | 0.86 | 4.15 | 220 | 9.49 | 1.85 | 9.53 | rotenone sensitive OCR after ADP stimulation, % of control, average (permeabilized 143B cells): 10.59 % of control; rotenone sensitive OCR after ADP stimulation, average (permeabilized 143B cells): 25.27; AMPK activation (in words) (AMPK-α (phospho-Thr172); 18-h treatment, IC50/10 biguanide concentrations): slightly lower activation; p-ACC ([2]; Experiment 1, 18 hours): 848; p-ACC / AMPK beta ([2]; Experiment 2, 18 hours): 2.03; p-ACC / AMPK beta normalised to control ([2]; Experiment 2, 18 hours): 12.57; p-ACC ([2]; Experiment 2, 18 hours): 727; p-ACC / AMPK beta ([2]; Experiment 3, 18 hours): 1.89; p-ACC / AMPK beta normalised to control ([2]; Experiment 3, 18 hours): 6.35; p-ACC ([2]; Experiment 3, 18 hours): 483 |
| N=C(N)NC(N)=Nc1ccccc1 [compound 2, phenyl biguanide] | 92.05 | 64.11 % of control and 81.27 % of control and 71.75 % of control and 89.78 % of control and 64.02 % of control and 84.74 % of control and 60.92 % of control and 78.85 % of control and 104.39 % of control and 61.15 % of control | 153.03 and 194.01 and 171.28 and 214.31 and 152.84 and 202.30 and 145.43 and 188.22 and 249.19 and 145.97 | 107.96 % of control | 261.48 | 135.56 % of control and 93.15 % of control and 89.18 % of control and 125.36 % of control and 159.10 % of control and 52.24 % of control and 102.54 % of control and 106.56 % of control | 328.33 and 225.59 and 215.99 and 303.61 and 385.34 and 126.52 and 248.35 and 258.08 | 1.18 | 0.14 | 1.11 | 64.6 | 0.17 | 1.14 | 57.4 | 0.27 | 1.28 | 57.3 | 1.20 | 0.25 | 1.30 | rotenone sensitive OCR after ADP stimulation, % of control, average (permeabilized 143B cells): 76.10 % of control; rotenone sensitive OCR after ADP stimulation, average (permeabilized 143B cells): 181.66; inhibition of the OCR (in words) (permeabilized 143B cells; permeabilized 143B cells, biguanide concentration equal to IC50): only limited inhibition; p-ACC ([2]; Experiment 1, 18 hours): 118; p-ACC / AMPK beta ([2]; Experiment 2, 18 hours): 0.22; p-ACC / AMPK beta normalised to control ([2]; Experiment 2, 18 hours): 1.36; p-ACC ([2]; Experiment 2, 18 hours): 75.8; p-ACC / AMPK beta ([2]; Experiment 3, 18 hours): 0.28; p-ACC / AMPK beta normalised to control ([2]; Experiment 3, 18 hours): 0.93; p-ACC ([2]; Experiment 3, 18 hours): 59.9 |
| NC(N)=NC(N)=NCc1ccccc1 [compound 3, 2-benzyl-1-(diaminomethylidene)guanidine] | 97.37 | 6.07 % of control and 2.51 % of control and 3.63 % of control and 7.99 % of control and 8.80 % of control and 18.64 % of control and 13.94 % of control and 7.14 % of control and 16.57 % of control and 2.18 % of control and 7.53 % of control | 14.50 and 5.99 and 8.67 and 19.08 and 21.01 and 44.51 and 33.29 and 17.05 and 39.56 and 5.21 and 17.98 | 28.02 % of control | 67.86 | 41.93 % of control and 30.59 % of control and 30.48 % of control and 24.44 % of control and 22.36 % of control and 21.02 % of control and 20.43 % of control and 32.91 % of control | 101.56 and 74.09 and 73.82 and 59.18 and 54.16 and 50.90 and 49.48 and 79.71 | 10.88 | 1.27 | 10.17 | 594 | 1.33 | 9.10 | 402 | 2.78 | 13.38 | 628 | 12.79 | 2.45 | 12.63 | p-ACC ([2]; Experiment 1, 18 hours): 1150; p-ACC / AMPK beta ([2]; Experiment 2, 18 hours): 2.31; p-ACC / AMPK beta normalised to control ([2]; Experiment 2, 18 hours): 14.32; p-ACC ([2]; Experiment 2, 18 hours): 699; p-ACC / AMPK beta ([2]; Experiment 3, 18 hours): 3.41; p-ACC / AMPK beta normalised to control ([2]; Experiment 3, 18 hours): 11.43; p-ACC ([2]; Experiment 3, 18 hours): 770 |
